Numbers after ± are expanded uncertainties.
Assay: xn = mol fraction of the nth substance listed
Details: 101 kPa, Liquid; for mass density: Vibrating tube method; for speed of sound: fixed-path interferometer

CC(C)CC(C)(C)C [2,2,4-trimethylpentane] + CCCCO
Details	mass density, 298.15 K [kg/m3]	mass density, 308.15 K [kg/m3]	mass density, 318.15 K [kg/m3]	mass density, 328.15 K [kg/m3]	speed of sound, 298.15 K [m/s]	speed of sound, 308.15 K [m/s]	speed of sound, 318.15 K [m/s]	speed of sound, 328.15 K [m/s]
x1 = 0.03101	799.41 ± 0.15	791.7 ± 0.15	783.95 ± 0.15	776.09 ± 0.16	1229.7 ± 1.2	1195.8 ± 1.2	1162.1 ± 1.2	1128.6 ± 1.2
x1 = 0.07555	790.82 ± 0.15	783.03 ± 0.15	775.22 ± 0.16	767.29 ± 0.16	1216 ± 1.2	1181.3 ± 1.2	1146.9 ± 1.2	1112.6 ± 1.2
x1 = 0.1426	778.75 ± 0.16	770.87 ± 0.16	762.95 ± 0.16	754.91 ± 0.16	1196.8 ± 1.2	1161.1 ± 1.2	1125.6 ± 1.2	1090.3 ± 1.2
x1 = 0.2049	768.51 ± 0.16	760.53 ± 0.16	752.52 ± 0.16	744.39 ± 0.16	1180.8 ± 1.2	1144.2 ± 1.2	1107.8 ± 1.2	1071.7 ± 1.2
x1 = 0.2621	759.76 ± 0.16	751.67 ± 0.16	743.61 ± 0.16	735.41 ± 0.17	1167.3 ± 1.2	1130 ± 1.2	1092.5 ± 1.2	1056.1 ± 1.2
x1 = 0.3176	751.87 ± 0.16	743.75 ± 0.16	735.6 ± 0.17	727.34 ± 0.17	1155.5 ± 1.2	1117.5 ± 1.2	1079.8 ± 1.2	1042.5 ± 1.2
x1 = 0.3932	741.94 ± 0.16	733.74 ± 0.17	725.51 ± 0.17	717.19 ± 0.17	1141.1 ± 1.2	1102.3 ± 1.2	1063.9 ± 1.2	1025.9 ± 1.2
x1 = 0.4553	734.44 ± 0.17	726.18 ± 0.17	717.92 ± 0.17	709.56 ± 0.17	1130.7 ± 1.2	1091.4 ± 1.2	1052.6 ± 1.2	1014.1 ± 1.2
x1 = 0.5458	724.43 ± 0.17	716.13 ± 0.17	707.81 ± 0.17	699.42 ± 0.18	1117.4 ± 1.2	1077.5 ± 1.2	1038.1 ± 1.2	999.2 ± 1.2
x1 = 0.6067	718.27 ± 0.17	709.93 ± 0.17	701.6 ± 0.17	693.2 ± 0.18	1109.8 ± 1.2	1069.5 ± 1.2	1029.7 ± 1.2	990.4 ± 1.2
x1 = 0.6787	711.51 ± 0.17	703.15 ± 0.17	694.8 ± 0.18	686.39 ± 0.18	1101.9 ± 1.2	1061.3 ± 1.2	1021.1 ± 1.2	981.6 ± 1.2
x1 = 0.742	706.01 ± 0.17	697.65 ± 0.17	689.3 ± 0.18	680.9 ± 0.18	1095.9 ± 1.2	1055.1 ± 1.2	1014.7 ± 1.2	974.8 ± 1.2
x1 = 0.8095	700.58 ± 0.17	692.21 ± 0.18	683.87 ± 0.18	675.5 ± 0.18	1090.6 ± 1.2	1049.5 ± 1.2	1008.8 ± 1.2	968.8 ± 1.2
x1 = 0.8683	696.2 ± 0.17	687.84 ± 0.18	679.5 ± 0.18	671.13 ± 0.18	1086.7 ± 1.2	1045.4 ± 1.2	1004.6 ± 1.2	964.3 ± 1.2
x1 = 0.9078	693.42 ± 0.18	685.07 ± 0.18	676.75 ± 0.18	668.4 ± 0.18	1084.5 ± 1.2	1043.1 ± 1.2	1002.2 ± 1.2	961.8 ± 1.2
x1 = 0.9422	691.1 ± 0.18	682.76 ± 0.18	674.47 ± 0.18	666.16 ± 0.18	1082.9 ± 1.2	1041.5 ± 1.2	1000.6 ± 1.2	960.2 ± 1.2
x1 = 0.9619	689.83 ± 0.18	681.51 ± 0.18	673.25 ± 0.18	664.98 ± 0.18	1082.3 ± 1.2	1040.7 ± 1.2	1000 ± 1.2	959.7 ± 1.2
x1 = 0.981	688.66 ± 0.18	680.37 ± 0.18	672.16 ± 0.18	663.97 ± 0.18	1082.1 ± 1.2	1040.9 ± 1.2	1000.1 ± 1.2	959.7 ± 1.2
x1 = 1	687.68 ± 0.18	679.45 ± 0.18	671.3 ± 0.18	663.17 ± 0.18	1082.7 ± 1.2	1041.1 ± 1.2	1000.1 ± 1.2	959.4 ± 1.2

CCCCO [butan-1-ol] + Cc1ccccc1
Details	mass density, 298.15 K [kg/m3]	mass density, 308.15 K [kg/m3]	mass density, 318.15 K [kg/m3]	mass density, 328.15 K [kg/m3]	speed of sound, 298.15 K [m/s]	speed of sound, 308.15 K [m/s]	speed of sound, 318.15 K [m/s]	speed of sound, 328.15 K [m/s]
x2 = 0	805.71 ± 0.15	798.05 ± 0.15	790.36 ± 0.15	782.56 ± 0.15	1240 ± 1.2	1206.6 ± 1.2	1173.4 ± 1.2	1140.4 ± 1.2
x2 = 0.02621	807.5 ± 0.15	799.76 ± 0.15	791.98 ± 0.15	784.09 ± 0.15	1241.1 ± 1.2	1207.3 ± 1.2	1173.8 ± 1.2	1140.4 ± 1.2
x2 = 0.06979	810.42 ± 0.15	802.54 ± 0.15	794.62 ± 0.15	786.6 ± 0.15	1242.9 ± 1.2	1208.6 ± 1.2	1174.5 ± 1.2	1140.6 ± 1.2
x2 = 0.1334	814.51 ± 0.15	806.45 ± 0.15	798.34 ± 0.15	790.12 ± 0.15	1245.4 ± 1.2	1210.3 ± 1.2	1175.4 ± 1.2	1140.8 ± 1.2
x2 = 0.1909	818.08 ± 0.14	809.86 ± 0.15	801.59 ± 0.15	793.21 ± 0.15	1247.6 ± 1.2	1211.8 ± 1.2	1176.3 ± 1.2	1141 ± 1.2
x2 = 0.2606	822.26 ± 0.14	813.87 ± 0.15	805.42 ± 0.15	796.86 ± 0.15	1250.1 ± 1.2	1213.6 ± 1.2	1177.4 ± 1.2	1141.5 ± 1.2
x2 = 0.3391	826.8 ± 0.14	818.22 ± 0.14	809.59 ± 0.15	800.85 ± 0.15	1252.9 ± 1.2	1215.6 ± 1.2	1178.6 ± 1.2	1142 ± 1.2
x2 = 0.4066	830.59 ± 0.14	821.86 ± 0.14	813.1 ± 0.15	804.22 ± 0.15	1255.4 ± 1.2	1217.5 ± 1.2	1180 ± 1.2	1142.8 ± 1.2
x2 = 0.473	834.2 ± 0.14	825.36 ± 0.14	816.47 ± 0.14	807.48 ± 0.15	1258 ± 1.2	1219.6 ± 1.2	1181.6 ± 1.2	1144.1 ± 1.2
x2 = 0.5406	837.84 ± 0.14	828.87 ± 0.14	819.88 ± 0.14	810.78 ± 0.15	1261 ± 1.2	1222 ± 1.2	1183.7 ± 1.2	1145.7 ± 1.2
x2 = 0.6007	841.01 ± 0.14	831.96 ± 0.14	822.88 ± 0.14	813.7 ± 0.15	1263.9 ± 1.2	1224.6 ± 1.2	1185.9 ± 1.2	1147.6 ± 1.2
x2 = 0.6711	844.68 ± 0.14	835.54 ± 0.14	826.37 ± 0.14	817.12 ± 0.14	1267.8 ± 1.2	1228.2 ± 1.2	1189.1 ± 1.2	1150.5 ± 1.2
x2 = 0.7376	848.14 ± 0.14	838.93 ± 0.14	829.68 ± 0.14	820.37 ± 0.14	1272.3 ± 1.2	1232.3 ± 1.2	1192.8 ± 1.2	1154 ± 1.2
x2 = 0.7967	851.2 ± 0.14	841.92 ± 0.14	832.63 ± 0.14	823.27 ± 0.14	1277 ± 1.2	1236.8 ± 1.2	1197.1 ± 1.2	1158 ± 1.2
x2 = 0.8691	854.94 ± 0.14	845.61 ± 0.14	836.27 ± 0.14	826.88 ± 0.14	1284.3 ± 1.2	1243.8 ± 1.2	1203.8 ± 1.2	1164.4 ± 1.2
x2 = 0.9327	858.35 ± 0.13	848.98 ± 0.14	839.62 ± 0.14	830.24 ± 0.14	1293.6 ± 1.2	1252.7 ± 1.2	1212.2 ± 1.2	1171.9 ± 1.2
x2 = 0.9649	860.1 ± 0.13	850.75 ± 0.14	841.43 ± 0.14	832.09 ± 0.14	1299.9 ± 1.2	1258.4 ± 1.2	1217 ± 1.2	1175.9 ± 1.2
